{"source": "patent US11629155B2", "about": "“Small molecule antagonist compound TAC5 series having toll-like receptor 3/7/8/9 inhibitory function” (AJOU UNIVERSITY INDUSTRY-ACADEMIC COOPERATION FOUNDATION, priority 2018, dated 2023)", "key": {"[1]": {"test_system": "C57BL/6 mice, IMQ-induced psoriasis", "test": "IMQ-induced psoriasis mouse model", "assay_type": "in vivo", "details": "FIG. 5F", "experimental": "The therapeutic efficacy of TAC5-a was evaluated in a psoriasis mouse model and a SLE mouse model. Psoriasis was induced in 6-7 week old C57BL/6 mice by topically applying 42 mg of IMQ cream (5%) to the shaved back skin of the mice for 6 consecutive days (FIG. 5A). TAC5-a was injected daily at doses of 50, 100 and 200 nmol/g and the effect thereof on severity was analyzed.\nHistological analysis and immunochemical staining were performed on skin samples of mouse dorsal lesions. The sample was fixed with 4% paraformaldehyde solution, then embedded in paraffin and cut to 7 μm on a glass slide. The sections were stained with hematoxylin and eosin (H&E) and the thickness of the dermis and epidermis were measured. The thickness of skin was measured with a Leica DMi8 fluorescence microscope using a Leica LAS X Hardware Configurator (Leica Microsystems GmbH, Wetzlar, Germany). IMQ-mediated skin inflammation was evaluated by immunohistochemistry (IHC) using a primary antibody that recognizes CD68 (ab31630, 1:200 dilution) as a macrophage marker. […] The skin was stained with hematoxylin and eosin (H&E) in order to evaluate the thickness of the epidermis (yellow arrow) and dermis (green arrow) in IMQ-induced psoriasis mice and thereby to observe the histopathological changes of skin lesions in each group (FIG. 5G) Immunohistochemical analysis of skin lesions in each group was performed using a primary antibody that recognizes CD68."}, "[2]": {"test_system": "TLR7/8", "test": "TLR7/8-mediated IL-6 expression in THP-1 cells", "assay_type": "cell-based, human", "details": "FIG. 4C", "method": "RAW264.7 cells (ATCC, Manassas, Va., USA), which are mouse macrophages, were cultured in low-glucose DMEM (Thermo Fisher Scientific Inc.) supplemented with 10% FBS, 100 IU/ml penicillin and 100 μg/ml streptomycin in a culture system. Human monocyte THP1 cells were cultured in RPMI 1640 (Thermo Fisher Scientific Inc.) supplemented with 10% FBS, 100 IU/ml penicillin and 100 μg/ml streptomycin and then differentiation thereof into macrophages was induced using 10 nM phorbol 12-myristate 13-acetate (PMA) (Sigma-Aldrich Co. LLC.) for 24 hours. CL075, R848, CpG-ODN and Poly(I:C) were purchased from InvivoGen (San Diego, Calif., USA), and LPS was purchased from Sigma-Aldrich Co. (St. Louis, Mo., USA).\nCytotoxicity in RAW 264.7 cells was tested by treatment with these compounds at a concentration of 12.5 to 50 μM. […] The inhibitory effect of TAC5-a on TLR-mediated signaling was confirmed by measuring TNF-α secretion through ELISA in THP1-derived macrophages. […] In addition, in order to evaluate the antagonistic effect of TAC5-a on endosomal TLR activation, cells were cultured along with this compound in the presence of R848 (TLR7/8) or CL075 (TLR7/8), imiquimod (IMQ; TLR7), TL8 (TLR8), poly(I:C) (TLR3) or CpG ODN (TLR9) (FIGS. 4E, 4F and 4G)."}, "[3]": {"test_system": "RAW 264.7 cells", "test": "MTT assay, cytotoxicity in RAW 264.7 cells", "details": "FIG. 4B", "method": "RAW264.7 cells (ATCC, Manassas, Va., USA), which are mouse macrophages, were cultured in low-glucose DMEM (Thermo Fisher Scientific Inc.) supplemented with 10% FBS, 100 IU/ml penicillin and 100 μg/ml streptomycin in a culture system.\nCytotoxicity in RAW 264.7 cells was tested by treatment with these compounds at a concentration of 12.5 to 50 μM."}}, "data": [{"smiles": "CN(Cc1cnc2nc(N)nc(N)c2n1)c1ccc(C(=O)N[C@@H](CCC(=O)O)C(=O)O)cc1", "note": "[MTX, methotrexate, reference compound]", "values": [{"measurement": "thickness of the epidermis and the dermis (H&E)", "setting": "[1]", "value": "therapeutic effects similar to those of the treatment group were observed"}]}, {"smiles": "c1ccc(COc2cccnc2Nc2ccccc2)cc1", "note": "[TAC5-c, 3-(benzyloxy)-N-phenylpyridin-2-amine]", "values": [{"measurement": "TLR7/8-mediated IL-6 expression", "setting": "[2]", "value": "inhibited"}, {"measurement": "cytotoxicity at 50 μM", "setting": "[3]", "value": "slight cytotoxicity"}]}, {"smiles": "CCOCC(Oc1cccnc1N)c1ccccc1", "note": "(centres unmarked) [TAC5-d, 3-(2-ethoxy-1-phenylethoxy)pyridine-2-amine]", "values": [{"measurement": "TLR7/8-mediated IL-6 expression", "setting": "[2]", "value": "inhibited"}]}, {"smiles": "NCCOCC(Oc1cccnc1N)c1ccccc1", "note": "(centres unmarked) [TAC5-e, 3-(2-(2-aminoethoxy)-1-phenylethoxy)pyridine-2-amine]", "values": [{"measurement": "TLR7/8-mediated IL-6 expression", "setting": "[2]", "value": "inhibited"}]}]}
